# Tested on: Plasmodium falciparum
# Assay: GSK_TCMDC: Inhibition of Plasmodium falciparum 3D7 in whole erythrocytes, using parasite LDH activity as an index of growth.
# Type: functional, organism-based
# Conditions: Plasmodium falciparum, 3D7
row,SMILES,XC50 [nM]
1,COc1ccc2c(N/N=C/c3cccc([N+](=O)[O-])c3)cc(C)nc2c1,557
2,O=C(Nc1ccc(N2CCN(C(=O)/C=C/c3ccccc3)CC2)c(Cl)c1)c1ccc([N+](=O)[O-])o1,859
3,O=C(Nc1nc(-c2ccccn2)cc2ccccc12)c1cccc(Cl)c1,754
4,Clc1ccc2c(Cl)c(CNCCCNc3nc4ccccc4[nH]3)[nH]c2c1,219
5,CCCCN(C(=O)c1ccccc1C)c1nnc(-c2ccccc2C)s1,927
6,O=C(NC1CC1)c1cnc(N2CCN(Cc3ccc(Cl)cc3)CC2)c(Cl)c1,847
7,CN(C)CCOc1cc(NC(=O)Nc2cccc3c(-c4ccncc4)cccc23)ccc1I,734
8,CCc1c(C(=O)NC2CCC(N3CCC(c4ccccc4OC)CC3)CC2)[nH]c2ccc(Br)cc12 (stereo unspecified),1120
9,CCc1ccc(C2=Nn3c(nnc3-c3cccs3)SC2)cc1,1290
10,N=C(N)c1cccc(OCCCOc2cccc(NC(=O)Nc3ccc([N+](=O)[O-])cc3)c2)c1,862
11,CN(C)CCN(C)Cc1ccc(-c2ccc3c(Nc4ccc(Oc5ccccn5)cc4)ccnc3c2)o1,424
12,FC(F)(F)c1ccc2c(NCCCNc3ccnc4cc(C(F)(F)F)ccc34)ccnc2c1,31.5
13,OC(c1cc(C(F)(F)F)nc2c(F)cccc12)C1CCCCN1 (stereo unspecified),782
14,O=C(NCCc1ccccc1)N(Cc1cccc(-c2ccc(CNC3CCCC3)cc2)c1)C1CCN(Cc2ccccc2)CC1,404
15,CCNc1cc(CC)nc(Nc2ccc(C)cc2)n1,848
16,CCNc1cc(C(=O)N[C@@H](Cc2ccccc2)[C@H](O)CNC(C)(C)Cc2cccc(Cl)c2)cc(N2CCCCS2(=O)=O)c1,887
17,COc1ccc(OCCCON)cc1,167
18,C[C@@H](N/C(=N\c1ccccc1Cl)Nc1ccc(C#N)cc1O)c1ccc(Br)cc1,753
19,Cc1ccc(C(=O)c2oc3ccc4c(C)cc(=O)oc4c3c2C)cc1,1030
20,O=C(Nc1ccc2c(c1)CCN2C1CCN(Cc2cc(F)cc(F)c2F)C1)c1ccco1 (stereo unspecified),590
21,COCCNCc1ccc(-c2ccc(CNC3CCN(Cc4ccccc4)CC3)cc2)cc1,669
22,Cc1cccc2nc(-c3ccc(-c4ccc(CN5CCC(N)C5)cc4)s3)[nH]c12 (stereo unspecified),373
23,CCn1c(SC)nnc1C1CCCN(CC(=O)Nc2nc3ccc(OC)cc3s2)C1 (stereo unspecified),746
24,CN(c1cc(NC(=O)c2cccs2)ccn1)C1CCN(Cc2cccc(F)c2)CC1,676

row,SMILES,XC50 [nM]
1,COc1ccc(NC(=O)[C@H](CC(C)C)Nc2ccnc(NCCc3ccc(F)cc3)n2)cc1,1600
2,Cc1ccc(NC(=O)c2nc(N3CCN(c4ccncc4)CC3)ccc2Cl)cc1F,812
3,COc1cc2nc(NCCc3ccccc3)nc(NCc3nccs3)c2cc1OC,532
4,Cc1cccc2nc(-c3cccc(-c4ccc(NC(=O)C5CCCO5)cc4)c3)[nH]c12 (stereo unspecified),901
5,CCc1cc(N2CCN(c3ccccc3F)CC2)nc(SCc2ccc(C(=O)NC3CC3)o2)n1,892
6,CC(C)[C@H](NC(=O)c1ccc(O)c(-c2ccc(Cl)c(Cl)c2)c1)C(=O)NC1CCCCCC1,224
7,COc1ccc2nccc([C@H](O)CN3CCC(NCc4cc(C)c5c(c4)OCCO5)CC3)c2n1,902
8,COc1ccc2[nH]ccc(=NN=CC=Cc3ccccc3)c2c1,743
9,O=[N+]([O-])c1cccc(CNC2CCN(Cc3ccc(-c4ccccc4)cc3)CC2)c1,231
10,NC(=O)c1ccsc1NC(=O)CNC(c1ccc(F)cc1)c1cccs1 (stereo unspecified),947
11,COc1cc(N(Cc2ccccc2C)S(=O)(=O)Cc2ccccc2[N+](=O)[O-])c(OC)cc1Cl,1010
12,O=C(Cc1ccccc1)NC(c1ccc(Cl)cc1)c1ccc2cccnc2c1O (stereo unspecified),861
13,CN(C)CCN(C)Cc1ccc(-c2cccc(NC(=O)c3ccc(Cl)cc3)c2)cc1,558
14,Cc1[nH]c(C)c(-c2ccc(OCCOc3ccc(C(F)(F)F)cn3)cc2)c(=O)c1Br,138
15,O=C(NCCN1CCCCC1)c1cc2cc(-c3ccccc3)ccc2n1S(=O)(=O)c1ccccc1,1120
16,CC(C)c1ccc(CN2CCC(CNC(=O)c3cc(-c4ccc(N(C)C)cc4)cs3)C2)cc1 (stereo unspecified),1250
17,CC(C)C[C@H](Nc1ccc(C#N)c2ccccc12)C(=O)NC(C)(C)C12CC3CC(CC(C3)C1)C2,916
18,Cc1nc(-c2cccc(Nc3nccc(NCC(O)c4ccccc4C(F)(F)F)n3)c2)cs1 (stereo unspecified),834
19,COc1ccc(CCNc2nc(NCCc3cnc[nH]3)nc(NCc3cccc4ccccc34)n2)cc1OC,537
20,O=C(O)c1cc(OCC(O)COc2ccc(O)c(C(=O)O)c2)ccc1O,227
21,c1ccc2c(NCCc3c[nH]cn3)c3ccccc3nc2c1,1040
22,CC(=O)Nc1ncc(C(=O)Nc2cccc(-c3cccc(-c4nc5cccc(C)c5[nH]4)c3)c2)s1,354
23,CNCCNCc1ccc(-c2cccc(-c3nc4cc(C(F)(F)F)ccc4[nH]3)c2)cc1,628
24,c1ccc(N2CCN(c3cc(-c4cccnc4)nc(-c4ccncc4)n3)CC2)nc1,757

row,SMILES,XC50 [nM]
1,Cc1ccc(Cn2ncc(N3CCNCC3)c(Cl)c2=O)cc1NC(=O)Nc1ccc(-c2ccccc2)cc1,1120
2,CC(C)(C)OC(=O)N(Cc1cc(-n2nnnc2C(F)(F)F)ccc1O)[C@H]1CCCN(C(=O)OC(C)(C)C)[C@H]1c1ccccc1,719
3,COc1ccc(-c2ccc(NC(=O)c3cccc(C#N)c3)cc2)cc1CN(C)C,735
4,COc1ccc(C2CC(c3cccs3)=NN2C(=O)CNc2ccccc2F)cc1OC (stereo unspecified),631
5,CC(C)(C)c1ccc(CNC(=O)COc2ccc(-c3nnc(-c4cccc([N+](=O)[O-])c4)o3)cc2[N+](=O)[O-])cc1,926
6,C[C@@H](CC1CCCCC1)OC(=O)N(C)[C@H]1CCN(C#N)C1,219
7,CC(C)CN1CCCN(Cc2cccc(NC(=O)c3ccc(Cl)c(Cl)c3)c2)CC1,893
8,CCCCNC[C@@H](O)[C@H](Cc1ccccc1)NC(=O)c1cc(NCC)cc(N2CCCCS2(=O)=O)c1,398
9,Cc1cccc(C(=O)Nc2ccnc(N(C)C3CCN(CC(C)C)CC3)c2)c1,869
10,Fc1cccc(C=NN=c2cc[nH]c3ccc(C(F)(F)F)cc23)c1,733
11,N#Cc1cccc(C(=O)Nc2ccc(-c3cccc(CN4CCCC4)c3)cc2)c1,712
12,O=C(O)c1ccc(OCOCOc2ccc(C(=O)O)c(O)c2)cc1O,190
13,Cc1nc2ccc(Nc3nccc(-c4c(-c5cccc(NC(=O)c6c(F)cccc6F)c5)nn5ccccc45)n3)cc2nc1C,1070
14,COc1c(C2CCN(CCCCNC(=O)c3ccc(-c4ccc(Cl)cc4)cn3)CC2)ccc2c1CCCC2,912
15,COc1ccccc1-c1cccc2c(NC(=O)Nc3ccc4nccc(N5CCN(C)CC5)c4c3)ccnc12,1000
16,Cc1ccc(C)c(S(=O)(=O)Nc2ccc(Br)cc2C(=O)Nc2cccc(C(F)(F)F)c2)c1,1210
17,NS(=O)(=O)c1ccc(CNC(=O)c2cnc3c(O)cccc3c2Nc2cccc(NC(=O)c3ccc(Cl)c(Cl)c3)c2)cc1,1720
18,O=C(Nc1cccc(Cl)c1)N[C@H]1CCN(Cc2ccc(OCCCN3CCCCC3)cc2)C1,729
19,NCC1CCCN1Cc1ccc(-c2ccc(-c3nc4cc(C(F)(F)F)ccc4[nH]3)s2)cc1 (stereo unspecified),794
20,COc1cc(CNCCCCCCNCc2cc(OC)c3ccccc3c2OC)c(OC)c2ccccc12,700
21,N=C1NC(=O)C(=Cc2cn(-c3ccccc3)nc2-c2cccc(S(=O)(=O)N3CCCC3)c2)S1,1140
22,O=C(COc1ccccc1)NC1CCN(c2ccnc3cc(Cl)ccc23)C1 (stereo unspecified),698
23,O=C(Nc1cc(C(F)(F)F)cc(C(F)(F)F)c1)NC(CCCN1CCC2(CC1)OCc1ccccc12)c1ccc(Cl)c(Cl)c1 (stereo unspecified),820
24,CCCc1cc(Cc2cnc(N)nc2N)cc(CCC)c1OCCCCC(=O)O,195

row,SMILES,XC50 [nM]
1,Fc1ccc2[nH]c(-c3ccc(-c4ccc(CN5CCCCC5)cc4)cc3)nc2c1,349
2,O=C(/C=C/c1ccc(Cl)c(Cl)c1)N1CCC(CN2CCC(c3c[nH]c4cc5c(cc34)OCO5)CC2)CC1,680
3,O=c1cc(N2CCNCC2)c(Cl)nn1Cc1ccc(NS(=O)(=O)c2ccc(Oc3ccccc3)cc2)cc1,574
4,O=C(NC1CCN(CCN2CCC(c3cn(CCO)c4ccccc34)CC2)CC1)c1ccc(-c2ccc(C(F)(F)F)cc2)cc1,740
5,O=C(Nc1ccc(C(=O)Oc2ccc3ccccc3c2)cc1)N[C@@H](Cc1ccc(O)cc1)C(=O)NC1CCN(Cc2ccc(O)cc2)C1 (stereo partly specified),1060
6,CCCC(=O)Nc1ccc(OCCCCN(CC(C)(C)C)c2ccc(C#N)c(C(F)(F)F)c2)cc1,1350
7,O=C(NC1CCC(CN2CCC(c3c[nH]c4ccccc34)CC2)CC1)c1cc(-c2ccc(F)cc2F)ccc1O (stereo unspecified),356
8,O=C(/C=C/c1ccc(Cl)c(Cl)c1)NCC[C@@H]1C[C@H]1CCN1CCC(c2c[nH]c3ccccc23)CC1,794
9,COc1cc(Cc2cnc(N)nc2N)c2c(c1OC)OC(C)C=C2 (stereo unspecified),1250
10,Cc1cnc(NCCc2ccc(F)cc2)nc1N[C@@H](CC(C)C)C(=O)Nc1ccccc1,970
11,CCn1cc2c3c(cc(C(=O)N[C@@H](Cc4ccccc4)[C@H](O)CNCc4cccc(OC)c4)cc31)N(C)S(=O)(=O)CC2,667
12,CN(C)Cc1c(O)ccc2[nH]c(-c3ccc(F)cc3F)nc12,1300
13,CCOc1cc(C(=O)Nc2cccnc2)cc(Br)c1OCCC(C)C,1080
14,Cc1cc(N[C@@H](Cc2ccccc2)C(=O)NC2CCCC2)nc(NCCc2cccs2)n1,1400
15,c1cc2c3c(cccc3c1)NC(CCCCCCCCC1=Nc3cccc4cccc(c34)N1)=N2,826
16,Cc1nccn1Cc1cc(C(C)(C)C)c(O)c(C(C)(C)C)c1,788
17,NC1=NC(Cc2ccccc2)(c2ccncc2)C(=O)N1CCCc1ccccc1 (stereo unspecified),936
18,COc1ccc2nccc([C@@H](O)CN3CCC(NCc4ccc5nnsc5c4)CC3)c2c1,714
19,Cc1ncccc1C(=O)Nc1cccc(-c2cccc(-c3nc4cc(C(F)(F)F)ccc4[nH]3)c2)c1,602
20,CCCN(Cc1nnc(-c2cccs2)o1)C(=O)C1COc2ccccc2O1 (stereo unspecified),850
21,N#Cc1ccc(-c2ccc(C(=O)NCCCCN3CCC(c4cn(CCCO)c5ccccc45)CC3)cc2)cc1,750
22,COc1ccc2nccc([C@@H](O)CN3CCC(NCc4cc5c(F)ccc(F)c5[nH]4)CC3)c2c1,144
23,Cc1nc(-c2cccc(C(=O)NC3CCC(CCN4CCc5ccc(-c6cccnc6)cc5CC4)CC3)c2)no1 (stereo unspecified),762
24,CC1CCN(c2nc(C(=O)Nc3ccc(F)cc3C(F)(F)F)c(C(C)C)s2)CC1,229
